Results from US6503449B1, “Process for the control of microbial contamination in water-based solids suspensions” (Ciba Specialty Chemicals Corporation, priority 1998, dated 2003).

System: mixture of Gram positive and Gram negative bacteria
Test: Sonication of Pigment Red 23 dispersion of Example 2 with biocide, bacterial contamination check
Format: cell-based
Set-up: key: −: no bacterial colonies detected; +: light contamination (10^0 and 10^3 cfu/ml); ++: moderate contamination(10^3-10^5 cfu/ml); +++: heavy contamination(>10^5 cfu/ml)
Source text: A mixture of Pigment Red 23, available from Ciba Specialty Chemicals(UK) Ltd., 215.5 parts, Emulan OG (RTM) (35% solution in water), available from BASF, 153.7 parts, tributyl phosphate, available from Albright & Wilson, 2 parts, and water, 128.8 parts, are dispersed by re-circulation through a Bachofen KDL200 bead-mill until colouristic properties are within specification of UNISPERSE (RTM) Red RBS-PI, available from Ciba Specialty Chemicals(UK) Ltd., and adjusted to pH 8.0-8.5 with 20% sodium hydroxide solution. This material is identified as containing the Gram negative bacterium, Pseudomonas putida. 50 millilitre aliquots of this dispersion containing levels of glutaraldehyde (pentane-1,5-dialdehyde), available as the trade product Protectol GDA form BASF or Ucarcide from Union Carbide, between 0 parts per million (ppm) and 2000 ppm are sonicated using a Branson MSE sonicator with a 19 mm horn probe resonating at 20 kHz with an amplitude of 6 microns. Sonication is undertaken in a 100 millilitre glass beaker, diameter 38 mm, with magnetic flea agitator and cooled in a water/ice bath to maintain temperature at 28-32° C. Bacterial growth in each sample is assessed at 5 minute intervals by streaking each dispersion on to Nutrient Agar(NA) plates and incubating the plates for a minimum of 48 hours at 30° C. The plates are then examined for bacterial colonies and expressed according to the following notation:
A mixture of Pigment Red 23,215.5 parts, Emulan OG (RTM) (35% solution in water), 153.7 parts, tributyl phosphate, 2 parts, and water, 128.8 parts are dispersed by re-circulation through a Bachofen KDL200 bead-mill until colouristic properties are within specification of UNISPERSE (RTM) Red RBS-PI as detailed in Example 1 and adjusted to pH 8.0-8.5 with 20% sodium hydroxide solution. This material is identified as having a bacterial count of 4.8×10^6 colony-forming units (cfu) per millilitre comprised of a mixture of Gram positive and Gram negative bacteria. It is treated with 250 parts per million(ppm) of pentane 1,5-dialdehyde and pumped through a 2406 Nearfield Accoustical Processor sonicating at 16 kHz and 20 kHz respectively with a plate separation of 6 mm (approximately) at a flow rate of 750 kg/hr. Assessment bacterial activity is then done by spreading a sample of the pigment dispersion on Nutrient Agar(NA) plates and incubating at 30° C. for 48 hours. […] The temperature rise is 1° C. per pass, from a starting value of 20° C.
The solids dispersion as defined in Example 2, containing the mixture of Gram positive and Gram negative bacteria, is treated separately with 200 ppm and 500 ppm of pentane-1,5-dialdeyde (Ucarcide 250 (RTM)), and with 200 ppm and 500 ppm of CIT/MIT mixture (Acticide LG (RTM)) and each sonicated for a period of 30 minutes according to the process defined in Example 1. Each sample is then checked for bacterial contamination over following 28 days.

SMILES: O=CCCCC=O [glutaraldehyde, pentane-1,5-dialdehyde]
- bacterial contamination (Ucarcide 250 200 ppm, 1 days after sonication): −
- bacterial contamination (Ucarcide 250 200 ppm, 2 days after sonication): −
- bacterial contamination (Ucarcide 250 200 ppm, 7 days after sonication): −
- bacterial contamination (Ucarcide 250 200 ppm, 14 days after sonication): −
- bacterial contamination (Ucarcide 250 200 ppm, 28 days after sonication): −
- bacterial contamination (Ucarcide 250 200 ppm, sonicated 0 mins.): +++ (heavy contamination(>10^5 cfu/ml))
- bacterial contamination (Ucarcide 250 200 ppm, sonicated 5 mins.): ++ (moderate contamination(10^3-10^5 cfu/ml))
- bacterial contamination (Ucarcide 250 200 ppm, sonicated 10 mins.): −
- bacterial contamination (Ucarcide 250 200 ppm, sonicated 15 mins.): −
- bacterial contamination (Ucarcide 250 200 ppm, sonicated 20 mins.): −
- bacterial contamination (Ucarcide 250 200 ppm, sonicated 25 mins.): −
- bacterial contamination (Ucarcide 250 200 ppm, sonicated 30 mins.): −
- bacterial contamination (Ucarcide 250 500 ppm, 1 days after sonication): −
- bacterial contamination (Ucarcide 250 500 ppm, 2 days after sonication): −
- bacterial contamination (Ucarcide 250 500 ppm, 7 days after sonication): −
- bacterial contamination (Ucarcide 250 500 ppm, 14 days after sonication): −
- bacterial contamination (Ucarcide 250 500 ppm, 28 days after sonication): −
- bacterial contamination (Ucarcide 250 500 ppm, sonicated 0 mins.): +++ (heavy contamination(>10^5 cfu/ml))
- bacterial contamination (Ucarcide 250 500 ppm, sonicated 5 mins.): −
- bacterial contamination (Ucarcide 250 500 ppm, sonicated 10 mins.): −
- bacterial contamination (Ucarcide 250 500 ppm, sonicated 15 mins.): −
- bacterial contamination (Ucarcide 250 500 ppm, sonicated 20 mins.): −
- bacterial contamination (Ucarcide 250 500 ppm, sonicated 25 mins.): −
- bacterial contamination (Ucarcide 250 500 ppm, sonicated 30 mins.): −
